One block for each molecule: values may come before it.
Experiments:
[1] = target: T1, FXR (Homo sapiens, UniProt Q96RI1); test: Gal4 DBD-NR LBD cotransfection assay, FXR; assay type: cell-based; settings: data not shown
T1 sequence (Q96RI1 262-486 limits assumed): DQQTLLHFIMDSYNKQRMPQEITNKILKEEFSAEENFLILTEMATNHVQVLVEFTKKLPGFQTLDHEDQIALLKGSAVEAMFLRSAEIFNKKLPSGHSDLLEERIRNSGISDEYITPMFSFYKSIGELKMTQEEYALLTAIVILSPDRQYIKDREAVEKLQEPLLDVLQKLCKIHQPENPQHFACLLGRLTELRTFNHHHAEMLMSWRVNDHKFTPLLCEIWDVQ

[2] = CNS exposure: plasma and brain levels in mice; settings: t = 6h
[3] = target: T2, LXRα (Homo sapiens, UniProt Q13133); test: Gal4 DBD-NR LBD cotransfection assay, LXRα; assay type: cell-based; settings: data not shown
T2 sequence (Q13133 209-447 limits assumed): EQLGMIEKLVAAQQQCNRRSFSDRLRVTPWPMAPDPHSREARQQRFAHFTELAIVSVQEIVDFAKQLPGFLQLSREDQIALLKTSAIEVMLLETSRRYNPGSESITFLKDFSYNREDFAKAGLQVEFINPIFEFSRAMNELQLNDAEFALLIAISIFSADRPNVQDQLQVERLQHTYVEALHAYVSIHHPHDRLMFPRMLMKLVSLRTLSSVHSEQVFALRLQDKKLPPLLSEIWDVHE

[4] = target: p450 3A4 (Homo sapiens, UniProt P08684); test: p450 inhibition 3A4; assay type: in vitro ADME; settings: 10 µM drug
[5] = target: T3, RORα (Homo sapiens, UniProt P35398); test: Gal4 DBD-NR LBD cotransfection assay, RORα; assay type: cell-based; settings: data not shown
T3 sequence (P35398 272-510 limits assumed): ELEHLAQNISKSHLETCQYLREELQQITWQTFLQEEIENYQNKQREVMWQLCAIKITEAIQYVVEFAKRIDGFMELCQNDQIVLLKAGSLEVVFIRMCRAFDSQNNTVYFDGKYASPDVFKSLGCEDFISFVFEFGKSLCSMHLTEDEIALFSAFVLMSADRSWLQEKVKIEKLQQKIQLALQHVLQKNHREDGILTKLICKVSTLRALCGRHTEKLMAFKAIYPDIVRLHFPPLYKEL

[6] = target: p450 2C9 (Homo sapiens, UniProt P11712); test: p450 inhibition 2C9; assay type: in vitro ADME; settings: 10 µM drug
[7] = Solubility; assay type: physicochemical; settings: 20hr
[8] = target: T4, GST-RORγ (Homo sapiens, UniProt P51449); test: Radioligand binding; settings: versus 6p
T4 sequence (P51449 269-508 limits assumed): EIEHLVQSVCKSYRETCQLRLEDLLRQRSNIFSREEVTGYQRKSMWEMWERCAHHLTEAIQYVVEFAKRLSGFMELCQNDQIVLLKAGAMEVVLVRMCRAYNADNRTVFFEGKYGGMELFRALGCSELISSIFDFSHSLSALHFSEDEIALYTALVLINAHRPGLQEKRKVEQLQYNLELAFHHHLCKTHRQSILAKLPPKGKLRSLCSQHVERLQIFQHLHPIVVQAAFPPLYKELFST

Sequence of p450 2C9 (P11712 whole entry): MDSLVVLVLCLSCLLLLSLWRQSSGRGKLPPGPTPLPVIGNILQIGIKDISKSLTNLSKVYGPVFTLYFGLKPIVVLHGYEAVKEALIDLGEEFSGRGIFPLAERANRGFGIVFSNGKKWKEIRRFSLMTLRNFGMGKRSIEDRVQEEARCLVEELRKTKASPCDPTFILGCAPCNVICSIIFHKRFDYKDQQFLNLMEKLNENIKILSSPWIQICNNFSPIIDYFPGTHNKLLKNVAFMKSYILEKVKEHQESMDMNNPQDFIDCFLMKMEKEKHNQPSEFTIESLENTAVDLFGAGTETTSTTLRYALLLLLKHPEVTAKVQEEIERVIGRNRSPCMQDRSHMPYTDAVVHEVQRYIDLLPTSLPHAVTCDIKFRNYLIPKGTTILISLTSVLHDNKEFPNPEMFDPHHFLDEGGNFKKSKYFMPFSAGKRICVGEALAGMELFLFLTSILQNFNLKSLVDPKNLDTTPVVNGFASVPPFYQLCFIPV
Sequence of p450 3A4 (P08684 whole entry, the tested form may be a part): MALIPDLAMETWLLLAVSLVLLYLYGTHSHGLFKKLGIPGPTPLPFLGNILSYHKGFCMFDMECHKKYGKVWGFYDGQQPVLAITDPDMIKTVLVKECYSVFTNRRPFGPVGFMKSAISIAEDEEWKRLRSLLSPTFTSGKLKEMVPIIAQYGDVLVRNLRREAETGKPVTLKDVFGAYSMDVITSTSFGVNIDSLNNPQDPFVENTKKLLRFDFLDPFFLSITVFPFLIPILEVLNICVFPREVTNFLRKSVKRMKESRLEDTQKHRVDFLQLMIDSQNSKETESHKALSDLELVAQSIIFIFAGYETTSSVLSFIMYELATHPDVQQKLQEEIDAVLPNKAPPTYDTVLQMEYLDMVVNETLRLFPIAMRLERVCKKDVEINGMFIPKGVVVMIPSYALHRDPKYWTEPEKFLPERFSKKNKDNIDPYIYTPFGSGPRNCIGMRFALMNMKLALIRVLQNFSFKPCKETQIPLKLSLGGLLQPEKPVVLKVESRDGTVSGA

SMILES: COc1cc(O)c(C(CC(=O)N2CC(C)CC(C)C2)c2ccc3c(c2)OCO3)c(OC)c1 (centres unmarked) [Compound 1]
- activity on FXR [1]: did not show any activity
- [Plasma] ([2]; 10 mg/kg IP in 10:10:80 DMSO:Tween:water): limited
- b.p. (%) brain penetration ([2]; 10 mg/kg IP): good
- activity on LXRα [3]: did not show any activity
- p450 % inhibition 3A4 [4]: high
- activity on RORα [5]: did not show any activity
- p450 % inhibition 2C9 [6]: high
- Solubility pH 7.4 ([7]; 100 µM solution shaken in PBS pH 7.4, room temperature): low to modest
- Solubility pH 5.0 ([7]; 100 µM solution shaken in Sodium Citrate Buffer pH 5.0, room temperature): low to modest

SMILES: COc1ccc(C(CC(=O)NCc2ccccc2)c2c(O)cc(OC)cc2OC)cc1 (centres unmarked) [Compound 6k]
- RORγ activity in words (binding assay) [8]: loss of activity

SMILES: COc1ccc(C(CC(=O)N2CCOCC2)c2c(O)cc(OC)cc2OC)cc1 (centres unmarked) [Compound 6l]
- RORγ activity in words (binding assay) [8]: loss of activity

SMILES: COc1ccc(C(CC(=O)N2CCCCC2)c2c(O)cc(OC)cc2OC)cc1 (centres unmarked) [Compound 6m]
- RORγ activity in words (binding assay) [8]: loss of activity

Second part, the molecule after the results:

- RORγ activity in words (binding assay) [8]: loss of activity
SMILES: COc1ccc(C(CC(=O)NC2CCCC2)c2c(O)cc(OC)cc2OC)cc1 (centres unmarked) [Compound 6n]

- RORγ activity in words (binding assay) [8]: loss of activity
SMILES: COc1ccc(C(CC(=O)N2CCCC2)c2c(O)cc(OC)cc2OC)cc1 (centres unmarked) [Compound 6o]

Source: publication PMC3534870 (Bioorganic & medicinal chemistry letters, 2012)
